The term IC50 denotes the midpoint of a concentration-inhibition curve. A lower IC50 goes with inhibition by little substance.

Where only a bound is given, the exact number is not on record here.

Data on 13 compounds can be found in patent publication US20250136722A1, “CYTOTOXICITY TARGETING CHIMERAS” (GLAXOSMITHKLINE INTELLECTUAL PROPERTY DEVELOPMENT LIMITED, priority 2021, published 2025).

In assay [1] the target is Anti-cotinine antibody (SEQ ID NO: 11 / SEQ ID NO: 12, rabbit variable region with human IgG1 Fc domain). Put plainly: Binding of anti-cotinine antibody to ARM compounds by SPR, Biacore T200, 37° C. (Example 202). Particulars: pH 7.4, rabbit variable region/human IgG1 Fc antibody captured on protein A. In short, it runs like this:
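Run at 37° C. in 10 mM HEPES pH 7.4, 150 mM NaCl, 0.005% P20, 1% DMSO. Compound titrated from 200 nM (five 3-fold steps) over protein A-captured antibody, with 200/2000 s association/dissociation. 1:1 kinetic fit gave kon, koff, Kd and residence time (1/koff); pKd averaged where runs repeated.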
On the technique in general: Surface plasmon resonance follows binding to a sensor surface in real time, without labels.

The target of assay [2] is T1, CHOK1 cells engineered to overexpress human CCR2 (Homo sapiens, UniProt P41597).
T1 construct: expressed in transfected cells; host or cells: CHOK1 cells
Put plainly: Antibody dependent cellular cytotoxicity (ADCC) reporter assay (Example 199). Type of assay: cell-based. Particulars: with anti-cotinine antibody SEQ ID NO: 11/12; CHOK1-human CCR2 target cells, Jurkat FcγRIIIa NFAT-luciferase reporter cells; 12-18 hours; read-out: ADCC Reporter Assay pEC50 (converted). In short, it runs like this:
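Potency is reported as pEC50 from a nonlinear fit, averaged over runs, using luciferase signal divided by that of compound-free wells. The readout comes from NFAT-luciferase Jurkat cells expressing FcγRIIIa, mixed for 12–18 h with human CCR2-overexpressing CHOK1 cells, 1 pM–10 μM ARM compound and 0.01–200 μg/mL Fc-enhanced anti-cotinine IgG1.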
(Reporter assays use an easily measured gene product as a stand-in for the process of interest.)

Assay [3] has as its target human alpha1 nicotinic acetylcholine (nACh) receptor (Homo sapiens, UniProt P02708+Q07001). Put plainly: Nicotinic acetylcholine receptor antagonism assay, IONFlux automated patch clamp (Example 203). Type of assay: cell-based. Particulars: for Emax at 10 µM: maximum percentage antagonism at maximum concentration tested 10 μM; for IC50: nAChR antagonism, ACh stimulated, patch clamp; for Emax at 100 µM: maximum percentage antagonism at maximum concentration tested 100 μM. The procedure:
Cells expressing human alpha1 nicotinic acetylcholine (nACh) receptor (nAChR) were washed and dissociated using Trypsin containing buffer. Cells were then washed and seeded at a density of 3-5 million cells/mL and allowed to grow for 3 days. Then, 60-80 μL of cells were added to plates and incubated with dose response of an ARM compound of Formula (I) with a top concentration of either 10 μM or 100 μM. The receptor was then stimulated via addition of acetylcholine (ACh) and activation of the receptor was monitored via the IONFlux automated patch clamp system. IonFlux Data Analyzer software was utilized to perform leak subtraction and measure (min) peak current amplitude.
Data processing: (1) Current values recorded for vehicle only applications in individual traps/patterns were subtracted from corresponding current amplitude values for control, test article and control+test article. (2) Control response was calculated as % of the average response of the 3rd out of total 3 ACh (10 mM) applications alone. In rare situations, if the 3rd ACh response was obscured due to technical artifacts, the 2nd and/or 1 st ACh (10 mM) application was considered as control. The peak current amplitude generated in the presence of each test article concentration was then used to calculate the % inhibition as compared to control response (10 mM ACh alone). These estimates were further corrected for vehicle response and run down corrected by normalizing with time matched control responses (10 mM ACh alone). The corrected percentages were then fit with a non-linear function in GraphPad Prism 6 (or later versions) to determine the […].
Exclusion criteria: (i) any n's with poor recording quality, (ii) control current amplitude <500 pA or (iii) significant outliers, as determined by the Grubbs' test.
ARMs compounds of Formula (I) of the invention were tested for antagonism of the nAChR in the above assay in […] experimental runs and the results are shown in Table 7 below. Antagonistic activity of the compounds of Formula (I) of the invention is reported as an IC50 value (half maximal inhibitory concentration) and the maximum percentage antagonism observed at the highest concentration of compound of Formula (I) tested, as indicated in Table 7. For compounds tested in more than one experimental run, the IC50 value is reported as an average.

Sequence of human alpha1 nicotinic acetylcholine (nACh) receptor (P02708 21-457): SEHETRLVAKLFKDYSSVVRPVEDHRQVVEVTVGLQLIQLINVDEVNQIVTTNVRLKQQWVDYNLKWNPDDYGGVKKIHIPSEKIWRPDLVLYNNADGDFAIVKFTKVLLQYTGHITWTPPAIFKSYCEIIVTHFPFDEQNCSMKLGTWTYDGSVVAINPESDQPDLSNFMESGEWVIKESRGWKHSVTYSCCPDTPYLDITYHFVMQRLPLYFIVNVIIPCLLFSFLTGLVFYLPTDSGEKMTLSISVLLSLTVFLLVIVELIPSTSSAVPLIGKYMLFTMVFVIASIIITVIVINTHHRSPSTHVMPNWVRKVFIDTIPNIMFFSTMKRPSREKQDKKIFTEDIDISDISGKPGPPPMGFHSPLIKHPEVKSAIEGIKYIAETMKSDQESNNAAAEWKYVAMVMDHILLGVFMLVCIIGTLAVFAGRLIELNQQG
Sequence of human alpha1 nicotinic acetylcholine (nACh) receptor (P11230 24-501 partner): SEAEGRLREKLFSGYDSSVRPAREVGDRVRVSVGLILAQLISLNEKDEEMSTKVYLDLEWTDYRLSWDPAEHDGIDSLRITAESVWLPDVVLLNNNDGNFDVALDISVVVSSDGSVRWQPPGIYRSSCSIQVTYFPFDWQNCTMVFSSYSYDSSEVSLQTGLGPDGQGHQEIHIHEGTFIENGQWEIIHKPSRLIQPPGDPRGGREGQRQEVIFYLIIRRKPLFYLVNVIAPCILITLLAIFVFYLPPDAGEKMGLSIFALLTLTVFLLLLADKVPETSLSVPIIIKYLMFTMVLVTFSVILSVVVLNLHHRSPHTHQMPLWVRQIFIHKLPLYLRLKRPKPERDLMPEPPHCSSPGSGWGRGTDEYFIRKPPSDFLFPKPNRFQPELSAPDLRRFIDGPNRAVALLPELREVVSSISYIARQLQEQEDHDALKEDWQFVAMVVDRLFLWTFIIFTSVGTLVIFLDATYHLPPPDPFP
Sequence of human alpha1 nicotinic acetylcholine (nACh) receptor (Q07001 22-517): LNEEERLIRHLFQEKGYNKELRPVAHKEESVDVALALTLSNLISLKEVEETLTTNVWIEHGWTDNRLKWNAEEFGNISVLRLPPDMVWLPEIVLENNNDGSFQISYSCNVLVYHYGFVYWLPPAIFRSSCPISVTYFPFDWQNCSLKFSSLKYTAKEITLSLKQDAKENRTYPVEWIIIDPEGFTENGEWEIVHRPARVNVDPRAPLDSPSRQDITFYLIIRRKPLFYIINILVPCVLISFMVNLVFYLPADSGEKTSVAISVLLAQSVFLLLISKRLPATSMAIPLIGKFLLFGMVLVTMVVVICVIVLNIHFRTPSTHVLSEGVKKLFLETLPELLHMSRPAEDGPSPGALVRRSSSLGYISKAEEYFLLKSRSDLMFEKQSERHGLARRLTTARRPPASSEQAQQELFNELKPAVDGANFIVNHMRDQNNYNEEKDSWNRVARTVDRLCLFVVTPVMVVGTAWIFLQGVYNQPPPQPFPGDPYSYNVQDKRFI

With `CC(C)N(C)[C@@H]1CC[C@H](N2CC[C@H](Nc3ncnc4ccc(C(F)(F)F)cc34)C2=O)[C@H](NC(=O)[C@H]2CC[C@@H](C3CCN(C(=O)CCOCCOCCNC(=O)[C@H]4CC(=O)N(C)[C@@H]4c4cccnc4)CC3)CC2)C1` [Example 72, (2S,3S)-N-(2-(2-(3-(4-((1S,4s)-4-(((1R,2S,5R)-5-(isopropyl(methyl)amino)-2-((S)-2-oxo-3-((6-(trifluoromethyl)quinazolin-4-yl)amino)pyrrolidin-1-yl)cyclohexyl)carbamoyl)cyclohexyl)piperidin-1-yl)-3-oxopropoxy)ethoxy)ethyl)-1-methyl-5-oxo-2-(pyridin-3-yl)pyrrolidine-3-carboxamide], the “pKd of Antibody for ARM Compound of Formula (I)” value (“pKd of Antibody” for short) in assay [1] was determined as 9.8865. For the same compound, the EC50 in assay [2] was 7.94 nM. In assay [3] (read-out: Maximum Response (%)), the Emax at 10 µM was 32.7%. The same compound showed an IC50 in assay [3] greater than 10000 nM.
Turning to `CC(C)N(C)[C@@H]1CC[C@H](N2CC[C@H](Nc3ncnc4ccc(C(F)(F)F)cc34)C2=O)[C@H](NC(=O)CCOCCNC(=O)COCCNC(=O)COCCNC(=O)[C@H]2CC(=O)N(C)[C@@H]2c2cccnc2)C1` [Example 102, (2S,3S)-N-(18-(((1R,2S,5R)-5-(Isopropyl(methyl)amino)-2-((S)-2-oxo-3-((6-(trifluoromethyl)quinazolin-4-yl)amino)pyrrolidin-1-yl)cyclohexyl)amino)-5,11,18-trioxo-3,9,15-trioxa-6,12-diazaoctadecyl)-1-methyl-5-oxo-2-(pyridin-3-yl)pyrrolidine-3-carboxamide], the “pKd of Antibody” value in assay [1] amounted to 9.076. Besides, the EC50 in assay [2] was 1.26 nM. Further, the Emax at 100 µM in assay [3] (read-out: Maximum Response (%)) turned out to be 61.3%. Also, inhibition in assay [3] was half-maximal at 66100 nM (IC50).
On the same counts, the results for `CC(C)N(C)[C@@H]1CC[C@H](N2CC[C@H](Nc3ncnc4ccc(C(F)(F)F)cc34)C2=O)[C@H](NC(=O)CCNC(=O)CCCOC[C@H]2CC[C@@H](COCCNC(=O)[C@H]3CC(=O)N(C)[C@@H]3c3cccnc3)CC2)C1` [Example 62] are 9.6305, 0.867 nM, 67.9% and 29000 nM.
As to `CC(C)N(C)[C@@H]1CC[C@H](N2CC[C@H](Nc3ncnc4ccc(C(F)(F)F)cc34)C2=O)[C@H](NC(=O)[C@H]2CC[C@H](NC(=O)CCOC[C@H]3CC[C@H](COCCNC(=O)[C@H]4CC(=O)N(C)[C@@H]4c4cccnc4)CC3)CC2)C1` [Example 53, (2S,3S)-N-(2-(((1R,4S)-4-((3-(((1R,4R)-4-(((1R,2S,5R)-5-(Isopropyl(methyl)amino)-2-((S)-2-oxo-3-((6-(trifluoromethyl)quinazolin-4-yl)amino)pyrrolidin-1-yl)cyclohexyl)carbamoyl)cyclohexyl)amino)-3-oxopropoxy)methyl)cyclohexyl)methoxy)ethyl)-1-methyl-5-oxo-2-(pyridin-3-yl)pyrrolidine-3-carboxamide], the “pKd of Antibody” value in assay [1] came to 9.531. Also, the EC50 in assay [2] is 7.6 nM. The Emax at 11.11 µM in assay [3] (maximum percentage antagonism at maximum concentration tested 11.11 μM, read-out: Maximum Response (%)) worked out at 10%. In assay [3], this compound had an IC50 greater than 11100 nM.
Regarding `CC(C)N(C)[C@@H]1CC[C@H](N2CC[C@H](Nc3ncnc4ccc(C(F)(F)F)cc34)C2=O)[C@H](NC(=O)CCCN2CCC3(CCN(CCCNC(=O)[C@H]4CC(=O)N(C)[C@@H]4c4cccnc4)CC3)CC2)C1` [Example 191, (2S,3S)-N-(3-(9-(4-(((1R,2S,5R)-5-(Isopropyl(methyl)amino)-2-((S)-2-oxo-3-((6-(trifluoromethyl)quinazolin-4-yl)amino)pyrrolidin-1-yl)cyclohexyl)amino)-4-oxobutyl)-3,9-diazaspiro[5.5]undecan-3-yl)propyl)-1-methyl-5-oxo-2-(pyridin-3-yl)pyrrolidine-3-carboxamide], in assay [1], the “pKd of Antibody” value is recorded as 9.68. Moreover, the EC50 in assay [2] is 0.424 nM. Moreover, the Emax at 10 µM in assay [3] (read-out: Maximum Response (%)) turned out to be 74%. Besides, the half-inhibitory concentration (IC50) in assay [3] turned out to be 2950 nM.
As for `CC(C)N(C)[C@@H]1CC[C@H](N2CC[C@H](Nc3ncnc4ccc(C(F)(F)F)cc34)C2=O)[C@H](NC(=O)[C@H]2CC[C@H](C3CCN(C(=O)CCOCCOCCNC(=O)[C@H]4CC(=O)N(C)[C@@H]4c4cccnc4)CC3)CC2)C1` [compound 73], the “pKd of Antibody” value in assay [1] is 9.8185. Moreover, the EC50 in assay [2] was 7.94 nM. Further, the Emax at 10 µM in assay [3] (read-out: Maximum Response (%)) was determined as 4.1%. For the same compound, the concentration for half-maximal inhibition (IC50) in assay [3] is greater than 10000 nM.
`CC(C)N(C)[C@@H]1CC[C@H](N2CC[C@H](Nc3ncnc4ccc(C(F)(F)F)cc34)C2=O)[C@H](NC(=O)[C@H]2CC[C@@H](CC(=O)CCCOC[C@H]3CC[C@H](COCCNC(=O)[C@H]4CC(=O)N(C)[C@@H]4c4cccnc4)CC3)CC2)C1` [Example 60]: the “pKd of Antibody” value in assay [1] was determined as 9.4635. The Emax at 10 µM in assay [3] (read-out: Maximum Response (%)) was 18.2%. This compound yielded an IC50 in assay [3] greater than 10000 nM.
`CC(C)N(C)[C@@H]1CC[C@H](N2CC[C@H](Nc3ncnc4ccc(C(F)(F)F)cc34)C2=O)[C@H](NC(=O)[C@H]2CC[C@H](NC(=O)CCOCCOCCOCCNC(=O)[C@H]3CC(=O)N(C)[C@@H]3c3cccnc3)CC2)C1` [Example 30]: the “pKd of Antibody” value in assay [1] is 9.3155. Moreover, the EC50 in assay [2] was 7.53 nM. Also, in assay [3] (read-out: Maximum Response (%)), the Emax at 10 µM stood at 5.4%. In assay [3], this compound returned an IC50 greater than 10000 nM.
`CC(C)N(C)[C@@H]1CC[C@H](N2CC[C@H](Nc3ncnc4ccc(C(F)(F)F)cc34)C2=O)[C@H](NC(=O)CCOCCNC(=O)CCOCCNC(=O)COCCNC(=O)[C@H]2CC(=O)N(C)[C@@H]2c2cccnc2)C1` [Example 105]: the “pKd of Antibody” value in assay [1] was found to be 9.0705. The EC50 in assay [2] was 0.794 nM. For the same compound, the Emax at 100 µM in assay [3] (read-out: Maximum Response (%)) was 75.7%. The compound also displayed an IC50 in assay [3] of 38900 nM.
On the same counts, the results for `CC(C)N(C)[C@@H]1CC[C@H](N2CC[C@H](Nc3ncnc4ccc(C(F)(F)F)cc34)C2=O)[C@H](NC(=O)[C@H]2CC[C@@H](NC(=O)CCOCCOCCOCCNC(=O)[C@H]3CC(=O)N(C)[C@@H]3c3cccnc3)CC2)C1` [Example 28] are 9.273, 0.251 nM, 69.9% and 40900 nM.
On the same counts, the results for `CC(C)N(C)[C@@H]1CC[C@H](N2CC[C@H](Nc3ncnc4ccc(C(F)(F)F)cc34)C2=O)[C@H](NC(=O)CCOCCC(=O)N[C@H]2C[C@H](C(=O)NCCOCCNC(=O)[C@H]3CC(=O)N(C)[C@@H]3c3cccnc3)C2)C1` [Example 187] are 9.104, 0.324 nM, 63.7% and 71100 nM.
Turning to `CC(C)N(C)[C@@H]1CC[C@H](N2CC[C@H](Nc3ncnc4ccc(C(F)(F)F)cc34)C2=O)[C@H](NC(=O)COCCNC(=O)COCCNC(=O)COCCNC(=O)[C@H]2CC(=O)N(C)[C@@H]2c2cccnc2)C1` [Example 111, (2S,3S)-N-(17-(((1R,2S,5R)-5-(Isopropyl(methyl)amino)-2-((S)-2-oxo-3-((6-(trifluoromethyl)quinazolin-4-yl)amino)pyrrolidin-1-yl)cyclohexyl)amino)-5,11,17-trioxo-3,9,15-trioxa-6,12-diazaheptadecyl)-1-methyl-5-oxo-2-(pyridin-3-yl)pyrrolidine-3-carboxamide], in assay [1], the “pKd of Antibody” value was determined as 9.0855. Besides, the EC50 in assay [2] is 6.31 nM. For the same compound, the Emax at 100 µM in assay [3] (read-out: Maximum Response (%)) stood at 67.6%. The compound further displayed an IC50 in assay [3] of 52900 nM.
Take `CC(C)N(C)[C@@H]1CC[C@H](N2CC[C@H](Nc3ncnc4ccc(C(F)(F)F)cc34)C2=O)[C@H](NC(=O)[C@H]2CC[C@@H](NC(=O)CCCOCCCCOCCNC(=O)[C@H]3CC(=O)N(C)[C@@H]3c3cccnc3)CC2)C1` [Example 122]: in assay [1], the “pKd of Antibody” value was determined as 9.146. Further, the Emax at 10 µM in assay [3] (read-out: Maximum Response (%)) turned out to be 23%. In assay [3], this compound showed a concentration for half-maximal inhibition (IC50) greater than 10000 nM.
